Experimental data taken from patent US20250002473A1, “QUINOXALINE DERIVED SULFONAMIDES WITH EGFR DEGRADATION ACTIVITIES AND THEIR USES THEREOF” (Accutar Biotechnology Inc., priority 2023, published 2025).

Tests used:
Assay type in all cases: cell-based
A431 (EGFR_WT) = target: T1, A431 (EGFR_WT) (Homo sapiens, UniProt P00533); experiment: EGFR degradation assay (western blot), A431 cells; details: Table 5, 24 h, read-out: DC50 (nM), 24 h, A431
T1 construct: endogenous in cells; host or cells: A431, NCI-H2073, NCI-H292
Procedure, shortened: (§1)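 Cells seeded overnight, then exposed to compounds for 24 h; lysates run on western blot, EGFR probed with tubulin loading control and fluorescent secondary detection. DC50 = concentration giving 50% EGFR degradation.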

[1] = test system: BaF3_DTC (EGFR_Exon19del/T790M/C797S); experiment: EGFR degradation assay (western blot), BaF3_DTC cells; details: Table 5; BaF3_Del19/T790M/C797S cells, 24 h; read-out: DC50 (nM), 24 h, BaF3_Del19/T790M/C797S
Procedure, shortened: as §1

[2] = target: T2, BaF3_ASV (EGFR_A776inASV) (Homo sapiens, UniProt P00533, DUP767-769); experiment: EGFR degradation assay (western blot), BaF3_ASV cells; details: Table 5; BaF3_ASV cells, 24 h; read-out: DC50 (nM), 24 h, BaF3_ASV
T2 construct: expressed in transfected cells; host or cells: Ba/F3 (engineered)
Procedure, shortened: as §1

[3] = target: T3, BaF3_SVD (EGFR_D770insSVD) (Homo sapiens, UniProt P00533, INS770SVD); experiment: EGFR degradation assay (western blot), BaF3_SVD cells; details: Table 5; BaF3_SVD cells, 24 h
T3 construct: expressed in transfected cells; host or cells: Ba/F3 (engineered)
Procedure: (§2) A431 (EGFR_WT), NCl-H2073 (EGFR_WT), NCl-H292 (EGFR_WT), BaF3_YVAM (Her2_A775insYVAM), BaF3_SVD (EGFR_D770insSVD), BaF3_ASV (EGFR_A776inASV), or BaF3_DTC (EGFR_Exon19del/T790M/C797S) cells were seeded in a 24-well plate at a density of 4×10^5 cells per well for EGFR WT cells and 8× cells per well for EGFR or Her2 mutant cells, and the plates were incubated overnight. The cells were treated with the desired compounds for 24 h. The culture medium was removed, and 100 μL of RIPA buffer (Beyotime, P0013B) containing 1% Protease Inhibitor Cocktail (Bimake, B14001), 1% Phosphatase Inhibitor Cocktail 2 (Sigma, P5726), and 1% Phosphatase Inhibitor Cocktail 3 (Sigma, P0044) were added to lyse the cells. Then, the cell lysates were transferred to 1.5 mL microcentrifuge tubes and centrifuged at 12,000 rpm and 4° C. for 30 min. The supernatants were transferred into new tubes, and the protein concentration was determined using the BCA protein quantification method. All samples were diluted to the same concentration using RIPA buffer, loading buffer was added, samples were denatured, and 15 μg of protein per lane was loaded onto a SurePAGE 4-20% Bis-Tris gel. Samples were separated via electrophoresis in MOPS running buffer at 180 V for 100 min. Then, proteins were transferred onto PVDF membranes using the MiniBlot™ Electrophoretic Transfer Cell Device (Beyotime, E6050). The membrane was blocked using block buffer (LI-COR 927-60001) to prevent non-specific binding. The membrane was incubated with primary antibodies (1:500 dilution, EGFR-CST4405, 1:2000 dilution, Tubulin-ABclonal #AC021) at 4° C. overnight. The membrane was washed three times with 1× TBST buffer for 15 min each. The membrane was incubated with secondary antibodies IRDye 680RD Goat anti-Rabbit IgG Secondary Antibody (1:2000 dilution, LI-COR 926-68071) and IRDye 800CW Goat anti-Mouse IgG Secondary Antibody (1:2000 dilution, LI-COR 926-32210). […] Fluorescence was detected using the Odyssey CLx Imaging System, and the data were analyzed with Empiria Studio Software and GraphPad Prism 9. […]

[4] = target: T4, BaF3_YVAM (Her2_A775insYVAM) (Homo sapiens, UniProt P04626, INS775YVMA); experiment: EGFR degradation assay (western blot), BaF3_YVAM cells; details: Table 5; BaF3_YVMA cells (mutant Her2), 24 h
T4 construct: expressed in transfected cells; host or cells: Ba/F3 (engineered)
Procedure: as §2

NCl-H2073 (EGFR_WT) = target: T5, NCl-H2073 (EGFR_WT) (Homo sapiens, UniProt P00533); experiment: EGFR degradation assay (western blot), NCl-H2073 cells; details: Table 5; NCI-H2073 cells (EGFR_WT), 24 h
T5 construct: endogenous in cells; host or cells: A431, NCI-H2073, NCI-H292
Procedure: as §2, with “min.” for “min. Then, proteins were transferred onto PVDF membranes using the MiniBlot™ Electrophoretic Transfer Cell Device (Beyotime, E6050). The membrane was blocked using block buffer (LI-COR 927-60001) to prevent non-specific binding. The membrane was incubated with primary antibodies (1:500 dilution, EGFR-CST4405, 1:2000 dilution, Tubulin-ABclonal #AC021) at 4° C. overnight. The membrane was washed three times with 1× TBST buffer for 15 min each. The membrane was incubated with secondary antibodies IRDye 680RD Goat anti-Rabbit IgG Secondary Antibody (1:2000 dilution, LI-COR 926-68071) and IRDye 800CW Goat anti-Mouse IgG Secondary Antibody (1:2000 dilution, LI-COR 926-32210).”

NCl-H292 (EGFR_WT) = target: T6, NCl-H292 (EGFR_WT) (Homo sapiens, UniProt P00533); experiment: EGFR degradation assay (western blot), NCl-H292 cells; details: Table 5; NCI-H292 cells (EGFR_WT), 24 h
T6 construct: endogenous in cells; host or cells: A431, NCI-H2073, NCI-H292
Procedure: as §2, with “min.” for “min. Then, proteins were transferred onto PVDF membranes using the MiniBlot™ Electrophoretic Transfer Cell Device (Beyotime, E6050). The membrane was blocked using block buffer (LI-COR 927-60001) to prevent non-specific binding. The membrane was incubated with primary antibodies (1:500 dilution, EGFR-CST4405, 1:2000 dilution, Tubulin-ABclonal #AC021) at 4° C. overnight. The membrane was washed three times with 1× TBST buffer for 15 min each. The membrane was incubated with secondary antibodies IRDye 680RD Goat anti-Rabbit IgG Secondary Antibody (1:2000 dilution, LI-COR 926-68071) and IRDye 800CW Goat anti-Mouse IgG Secondary Antibody (1:2000 dilution, LI-COR 926-32210).”

A431 = experiment: Cell growth inhibition assay (CellTiter-Glo), A431; details: Homo sapiens, A-431, 24 h, Table 7; A431 cells; head prints 24 h; read-out: GI50 (nM), 24 h, A431
Procedure, shortened: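 This growth inhibition assay reports GI50, the compound concentration producing 50% inhibition of cell growth relative to DMSO. Seeded cells (90 μL medium per well, 96-well Corning 3610 plates, overnight at 37° C.) received 10 μL of compound diluted 1:100 from a 1,000× DMSO stock. Luminescence was measured on Envision (PerkinElmer) and analyzed in GraphPad Prism 9.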

BaF3_DTC = experiment: Cell growth inhibition assay (CellTiter-Glo), BaF3_DTC; details: Table 7; BaF3_Del19/T790M/C797S cells; head prints 24 h; read-out: GI50 (nM), 24 h, BaF3_Del19/T790M/C797S
BaF3_ASV = experiment: Cell growth inhibition assay (CellTiter-Glo), BaF3_ASV; details: Table 7; BaF3_ASV cells; head prints 24 h; read-out: GI50 (nM), 24 h, BaF3_ASV
BaF3_SVD = experiment: Cell growth inhibition assay (CellTiter-Glo), BaF3_SVD; details: Table 7; BaF3_SVD cells
Procedure: (§3) Cells were seeded in a 96-well plate (Corning 3610) with 90 μL of culture medium per well, and plates were incubated at 37° C. overnight. A 1,000× DMSO stock solution of the desired compound was prepared the following day. A compound dilution plate was prepared by diluting the stock solution 1:100 in the corresponding cell culture medium, 10 μL of the diluted compound solution was added to each 96-well plate well containing the seeded cells. Then, the cells were cultured at 37° C. for three days following compound treatment, 100 μL of CellTiter-Glo reagents (Promega G7573) was added to each well of the 96-well plate. The content of the wells was mixed by shaking continuously for 10 min, and luminescence was measured using Envision (PerkinElmer). The data were analyzed with GraphPad Prism 9 (see FIG. 50).
(§4) Table 6, Table 7, and Table 8 list the cell growth inhibition results, where Gls0 represents the compound concentration to cause 50% cell growth inhibition in comparison with DMSO.

BaF3_YVMA = experiment: Cell growth inhibition assay (CellTiter-Glo), BaF3_YVMA; details: Table 7; BaF3_YVMA cells; head prints 24 h
Procedure: as §3, with “Then, the cells were cultured at 37° C. for three days following compound treatment, 100 μL of CellTiter-Glo reagents (Promega G7573) was added to each well of the 96-well plate.” left out
as §4

NCI-H292 = experiment: Cell growth inhibition assay (CellTiter-Glo), NCI-H292; details: Homo sapiens; Table 7; NCI-H292 cells; head prints 24 h
Procedure: as §3, with “Then, the cells were cultured at 37° C. for three days following compound treatment, 100 μL of CellTiter-Glo reagents (Promega G7573) was added to each well of the 96-well plate.” left out
as §4

T1 sequence (P00533 25-1210): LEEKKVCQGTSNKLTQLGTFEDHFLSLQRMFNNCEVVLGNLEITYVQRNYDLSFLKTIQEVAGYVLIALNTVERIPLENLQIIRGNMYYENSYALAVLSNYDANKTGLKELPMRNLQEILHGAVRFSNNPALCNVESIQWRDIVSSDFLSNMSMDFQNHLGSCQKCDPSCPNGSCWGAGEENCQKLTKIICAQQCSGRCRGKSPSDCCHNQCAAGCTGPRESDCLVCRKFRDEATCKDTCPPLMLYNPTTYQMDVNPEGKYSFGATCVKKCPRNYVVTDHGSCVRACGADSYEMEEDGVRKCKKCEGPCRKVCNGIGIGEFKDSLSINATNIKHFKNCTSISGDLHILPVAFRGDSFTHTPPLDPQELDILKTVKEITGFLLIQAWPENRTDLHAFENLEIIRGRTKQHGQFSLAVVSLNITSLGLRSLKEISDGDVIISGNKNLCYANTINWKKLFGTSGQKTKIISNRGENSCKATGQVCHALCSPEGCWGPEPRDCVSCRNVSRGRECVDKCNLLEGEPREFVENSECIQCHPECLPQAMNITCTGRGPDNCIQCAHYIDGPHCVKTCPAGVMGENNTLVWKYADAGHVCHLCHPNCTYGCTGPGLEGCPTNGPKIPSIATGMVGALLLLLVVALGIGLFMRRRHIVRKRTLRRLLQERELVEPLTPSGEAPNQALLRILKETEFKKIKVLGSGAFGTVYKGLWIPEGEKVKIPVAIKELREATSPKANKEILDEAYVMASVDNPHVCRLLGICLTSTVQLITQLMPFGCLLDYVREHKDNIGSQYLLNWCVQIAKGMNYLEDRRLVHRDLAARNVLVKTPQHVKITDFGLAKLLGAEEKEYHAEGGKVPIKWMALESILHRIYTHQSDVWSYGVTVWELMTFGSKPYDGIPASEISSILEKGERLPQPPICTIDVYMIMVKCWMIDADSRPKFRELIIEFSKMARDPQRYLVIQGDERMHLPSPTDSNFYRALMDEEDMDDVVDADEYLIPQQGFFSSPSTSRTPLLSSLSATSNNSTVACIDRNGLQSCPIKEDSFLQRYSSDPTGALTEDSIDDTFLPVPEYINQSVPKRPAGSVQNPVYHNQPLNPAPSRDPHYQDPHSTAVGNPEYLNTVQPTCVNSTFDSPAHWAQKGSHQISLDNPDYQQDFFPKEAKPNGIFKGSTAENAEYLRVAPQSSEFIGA
T6 sequence (P00533 25-1210): as above
T5 sequence (P00533 25-1210): as above
T3 sequence (P00533 with tags, fused parts or gaps INS770SVD): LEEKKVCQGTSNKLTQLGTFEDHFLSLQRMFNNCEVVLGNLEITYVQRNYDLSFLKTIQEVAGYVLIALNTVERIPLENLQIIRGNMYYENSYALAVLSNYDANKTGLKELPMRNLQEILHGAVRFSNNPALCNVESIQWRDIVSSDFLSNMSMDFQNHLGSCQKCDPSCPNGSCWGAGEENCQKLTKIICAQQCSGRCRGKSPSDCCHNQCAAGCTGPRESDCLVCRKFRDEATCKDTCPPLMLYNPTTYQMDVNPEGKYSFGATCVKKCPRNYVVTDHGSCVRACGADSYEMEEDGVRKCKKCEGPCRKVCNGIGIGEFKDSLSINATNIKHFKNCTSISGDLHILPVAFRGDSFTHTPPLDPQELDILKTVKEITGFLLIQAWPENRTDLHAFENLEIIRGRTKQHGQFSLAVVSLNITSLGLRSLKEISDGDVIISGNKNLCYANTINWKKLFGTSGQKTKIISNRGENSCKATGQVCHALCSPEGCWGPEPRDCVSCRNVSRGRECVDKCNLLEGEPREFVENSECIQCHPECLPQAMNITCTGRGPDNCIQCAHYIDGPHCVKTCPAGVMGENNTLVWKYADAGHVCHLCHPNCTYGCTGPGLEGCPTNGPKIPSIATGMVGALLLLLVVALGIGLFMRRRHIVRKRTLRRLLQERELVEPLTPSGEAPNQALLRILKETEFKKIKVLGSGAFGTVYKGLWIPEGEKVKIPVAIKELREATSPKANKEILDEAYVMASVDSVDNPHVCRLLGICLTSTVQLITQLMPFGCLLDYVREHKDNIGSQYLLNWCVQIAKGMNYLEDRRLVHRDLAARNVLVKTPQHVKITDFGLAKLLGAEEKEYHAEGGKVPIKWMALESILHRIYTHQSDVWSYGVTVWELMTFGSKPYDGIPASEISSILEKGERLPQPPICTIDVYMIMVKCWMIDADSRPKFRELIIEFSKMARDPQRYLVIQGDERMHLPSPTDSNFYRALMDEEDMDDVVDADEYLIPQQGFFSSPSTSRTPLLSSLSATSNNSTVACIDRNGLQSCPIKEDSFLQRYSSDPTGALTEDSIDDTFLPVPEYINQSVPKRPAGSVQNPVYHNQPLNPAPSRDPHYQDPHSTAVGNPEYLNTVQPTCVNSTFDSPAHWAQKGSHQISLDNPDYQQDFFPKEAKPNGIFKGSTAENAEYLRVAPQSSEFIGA

`CCc1cc(Nc2ncc(Br)c(Nc3cnc4ccccc4c3P(C)(C)=O)n2)c(OC)cc1N1CCC(N2CCN(CCc3cccc4c3n(CC)c(=O)n4C3CCC(=O)NC3=O)CC2)CC1` (stereo not shown) [Compound A, reference compound] gave a DC50 (A431 (EGFR_WT)) greater than 1000 nM, a DC50 [1] of 0.622 nM and a DC50 [2] of 109 nM. It also gave a DC50 [3] of 280 nM, a DC50 [4] greater than 1000 nM and a DC50 (NCl-H2073 (EGFR_WT)) greater than 1000 nM. The DC50 (NCl-H292 (EGFR_WT)) was greater than 1000 nM, the GI50 (A431) was greater than 3000 nM and the GI50 (BaF3_DTC) was 8.57 nM. It also gave a GI50 (BaF3_ASV) of 824 nM, a GI50 (BaF3_SVD) of 2340 nM and a GI50 (BaF3_YVMA) of 2630 nM. It also gave a GI50 (NCI-H292) greater than 3000 nM.
